In the assay the target is T1, BmTy (tyrosinase from Bacillus megaterium) (Priestia megaterium, UniProt B2ZB02).
T1 construct: 6x His-tagged, expressed in E. coli BL21(DE3), Ni-NTA purified
T1 sequence (B2ZB02 1-297): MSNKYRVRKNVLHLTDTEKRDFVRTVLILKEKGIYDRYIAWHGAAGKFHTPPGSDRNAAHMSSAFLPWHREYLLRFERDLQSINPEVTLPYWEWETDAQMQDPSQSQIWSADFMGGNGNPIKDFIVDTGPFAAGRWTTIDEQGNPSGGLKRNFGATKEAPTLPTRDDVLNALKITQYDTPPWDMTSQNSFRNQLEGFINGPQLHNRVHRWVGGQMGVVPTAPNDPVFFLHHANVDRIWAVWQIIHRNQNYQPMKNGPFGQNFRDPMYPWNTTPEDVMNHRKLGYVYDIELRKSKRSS
Description: dopachrome assay at […] nm, initial rates, L-tyrosine as substrate (monophenolase activity). The class given is biochemical. The note with it: read-out: KI1.

With `O=c1c(O)c(-c2ccc(O)c(O)c2)oc2cc(O)cc(O)c12` [QUE, quercetin], the Ki worked out at 33.9 µM.
